Earlier results in PMC2750848 (Journal of medicinal chemistry, 2008).
Marks after values point to notes of the source that are not given here.

Tested on: M. tuberculosis H37Rv

Substance: 5′-O-[N-(salicyl)sulfamoyl]adenosine [Compound 4]
- MIC99 (Fe-deficient) (Fe-deficient): 0.39 ^i µM
- MIC99 (Fe-rich) (Fe-rich): 1.56 ^i µM
